In ChEMBL document CHEMBL1141322, “Antiprotozoal polyacetylenes from the Tanzanian medicinal plant Cussonia zimmermannii” (J Nat Prod, 2007):

Test system: Trypanosoma cruzi
Assay: Antiparasitic activity against Trypanosoma cruzi
Type: functional, organism-based
Work on C=CC(C#CC#CC(O)CCCCCCCCC)OC(C)=O (centres undefined) yielded an IC50 of 0.65 µM. Work on C=CC(C#CC#CC(O)CCCCCCCCCCOC(C)=O)OC(C)=O (centres undefined) yielded an IC50 of 0.4 µM. Compound CCCCCCCCCC(O)C#CC#CC(CC)OC(C)=O (centres undefined) has an IC50 of 26 µM. For O=C(Cn1ccnc1[N+](=O)[O-])NCc1ccccc1 [BENZNIDAZOLE], the IC50 was 2.4 µM.

Test system: not listed separately
Assay: Selectivity index, ratio of IC50 for rat L6 cells to IC50 for Trypanosoma cruzi
Type: functional
For C=CC(C#CC#CC(O)CCCCCCCCC)OC(C)=O (centres undefined), the “Ratio IC50” value was 18. In the case of C=CC(C#CC#CC(O)CCCCCCCCCCOC(C)=O)OC(C)=O (centres undefined), the “Ratio IC50” value is reported as 150. With CCCCCCCCCC(O)C#CC#CC(CC)OC(C)=O (centres undefined) the “Ratio IC50” value was 2.1.

Test system: Leishmania donovani
Assay: Antileishmanial activity against Leishmania donovani axenic amastigotes
Type: functional, organism-based
In the case of C=CC(C#CC#CC(O)CCCCCCCCC)OC(C)=O (centres undefined), the IC50 is reported as 0.13 µM. For C=CC(C#CC#CC(O)CCCCCCCCCCOC(C)=O)OC(C)=O (centres undefined), the IC50 was 0.14 µM. In the case of CCCCCCCCCC(O)C#CC#CC(CC)OC(C)=O (centres undefined), the IC50 is reported as 7.8 µM.

Test system: not listed separately
Assay: Selectivity index, ratio of IC50 for rat L6 cells to IC50 for Leishmania donovani in mouse macrophages
Type: functional
With C=CC(C#CC#CC(O)CCCCCCCCC)OC(C)=O (centres undefined) the “Ratio IC50” value was 37. With C=CC(C#CC#CC(O)CCCCCCCCCCOC(C)=O)OC(C)=O (centres undefined) the “Ratio IC50” value was 26. In the case of CCCCCCCCCC(O)C#CC#CC(CC)OC(C)=O (centres undefined), the “Ratio IC50” value is reported as under 5.5.

Test system: Plasmodium falciparum
Assay: Antiparasitic activity against Plasmodium falciparum
Type: functional, organism-based
C=CC(C#CC#CC(O)CCCCCCCCC)OC(C)=O (centres undefined) showed an IC50 of 1.4 µM. C=CC(C#CC#CC(O)CCCCCCCCCCOC(C)=O)OC(C)=O (centres undefined) gave an IC50 of 2.2 µM. With CCCCCCCCCC(O)C#CC#CC(CC)OC(C)=O (centres undefined) the IC50 was 19 µM. Compound C[C@@H]1CC[C@H]2[C@@H](C)C(=O)O[C@@H]3O[C@@]4(C)CC[C@@H]1[C@]32OO4 [ARTEMISININ] has an IC50 of 0.0043 µM.

Test system: Trypanosoma brucei rhodesiense
Assay: Antiparasitic activity against Trypanosoma brucei rhodesiense by Alamar blue assay
Type: functional, organism-based
For C=CC(C#CC#CC(O)CCCCCCCCC)OC(C)=O (centres undefined), the IC50 was 0.46 µM. With C=CC(C#CC#CC(O)CCCCCCCCCCOC(C)=O)OC(C)=O (centres undefined) the IC50 was 1.1 µM. CCCCCCCCCC(O)C#CC#CC(CC)OC(C)=O (centres undefined) gave an IC50 of 18 µM. For Nc1nc(N)nc(Nc2ccc([As]3SCC(CO)S3)cc2)n1 (centres undefined) [MELARSOPROL], the IC50 was 0.0058 µM.

Test system: L6
Assay: Cytotoxicity against rat L6 cells by Alamar blue assay
Type: cell-based
Compound C=CC(C#CC#CC(O)CCCCCCCCC)OC(C)=O (centres undefined) has an IC50 of 12 µM. In the case of C=CC(C#CC#CC(O)CCCCCCCCCCOC(C)=O)OC(C)=O (centres undefined), the IC50 is reported as 58 µM. For CCCCCCCCCC(O)C#CC#CC(CC)OC(C)=O (centres undefined), the IC50 was 54 µM. Compound COc1cc([C@@H]2c3cc4c(cc3[C@H](O)[C@H]3COC(=O)[C@H]23)OCO4)cc(OC)c1OC [PODOFILOX] has an IC50 of […].

Test system: Leishmania donovani
Assay: Antileishmanial activity against Leishmania donovani in mouse macrophages
Type: functional, organism-based
C=CC(C#CC#CC(O)CCCCCCCCC)OC(C)=O (centres undefined) gave an IC50 of 0.32 µM. With C=CC(C#CC#CC(O)CCCCCCCCCCOC(C)=O)OC(C)=O (centres undefined) the IC50 was 2.3 µM. CCCCCCCCCC(O)C#CC#CC(CC)OC(C)=O (centres undefined) showed an IC50 of over 10 µM. With CCCCCCCCCCCCCCCCOP(=O)([O-])OCC[N+](C)(C)C [MILTEFOSINE] the IC50 was 0.71 µM.
